Laboratory results taken from patent publication US9464291B2, “Methods and compositions for the treatment of cancer” (University of South Alabama, priority 2012, dated 2016).
“Also recorded” adds a separate entry of the source.

Columns and labels:
RAW264.7 cells = assay: Osteoclast resorption activity, OAAS plates; assay type: cell-based, murine; conditions: DM supplemented with SHH (100 nM) or OPN (100 ng/ml)
Description: Osteoclast differentiation and activity assays—Tartarate-resistant acid phosphatase (TRAP) assay was conducted for RAW 264.7 following the manufacturer's protocol (Sigma, St. Louis, Mo.). This assay was indicative of the extent of differentiation. OAAS plates (Osteogenic Core Technologies, Choongnam, Republic of Korea) were utilized to measure osteoclastic activity. RAW 264.7 cells (25×103) were inoculated in 48-well plates. Cells were treated with serum-free conditioned media from breast cancer cells or 100 nM SHH or 100 ng/ml OPN on the following day. Media was changed every two days and the experiments were terminated either on day 6 (day 7 for knockdown experiments, with transfections being done on the sixth day). At the completion, cells were detached with 5% sodium hypochlorite and the wells were observed under a Nikon Eclipse TS 100 microscope at 10× magnification. […] The percentage of area resorbed was calculated using the NIS-Elements BR. 3.1 software.

MC3T3-E1 cells = assay: Osteoblast differentiation (ALP) and mineralization (Alizarin Red S), MC3T3-E1; assay type: cell-based, murine; conditions: 100 nM ligand in DM
Description: The procedure for differentiation of osteoblasts was standardized. MC3T3-E1 cells were cultured in the presence of ascorbic acid and β-glycerophosphate. Mineralization was examined by Alizarin RedS staining (Ueno, A., et al. (2001). Matrix Biol 20, 347-355; Lee, Y. K., et al. (2004). J Biomed Mater Res A 69, 188-195; Duarte, W. R., et al. (2003). S100A4: a novel negative regulator of mineralization and osteoblast differentiation. J Bone Miner Res 18, 493-501). Referring to FIG. 13 and FIG. 14, differentiation was evident by intense red staining in presence of differentiation medium and in differentiation medium containing SHH compared to the control, growth medium. This was also evident in the intensity of absorbance and in the numbers of mineralized nodules formed (counted under the microscope) (FIG. 15).
Induction of osteoblastic and osteoclastic differentiation—In order to test the effect of conditioned medium from the tumor cells on osteoblast differentiation, a double-strength differentiation medium (DM) was formulated for MC3T3 E1 Sc-14 cells. […] Osteoblast differentiation was assessed by alkaline phosphatase (ALP) activity assay in the perspective of total phosphatase. The functional assessment of osteoblast mineralization was quantified by staining with Alizarin Red S and scoring the number of mineralized nodules.

[1] = test system: OPN, MMP9, Cathepsin K (CTSK); assay: OPN, MMP9 and CTSK expression by osteoclasts; assay type: cell-based, murine; conditions: DM supplemented with cyclopamine
From the text: Quantitative RT-PCR (qRT-PCR)-cDNA was generated using High Capacity Reverse Transcriptase Kit (Applied Biosystems, Foster City, Calif.). […] All reactions were done in triplicate.

[2] = test system: c-jun (Ser 63, Ser 73, Thr 91, Thr 93); assay: c-jun protein phosphorylation, Western blot, A2780-CP70 cells; assay type: cell-based, human; conditions: 72 hr observation
Description: Protein levels for c-jun, c-fos, phosphorylated c-jun (Ser 63), phosphorylated c-jun (Ser 73), and phosphorylated c-jun (Thr 91, Thr 93) were tested in cytosolic, nuclear, and whole cell fractions at 0 hr, 6 hr, 24 hr, 48 hr, and 72 hr. Internal controls for cytosolic and nuclear fractions included α-tubulin and histone deacetylase 3.
Phosphorylation of c-jun in A2780-CP70 cells transfected with anti-GLI1 shRNA construct was assessed using Western blot analysis. Protein levels for c-jun, phosphorylated c-jun (Ser 63), phosphorylated c-jun (Ser 73), and phosphorylated c-jun (Thr 91, Thr 93) were examined at 0 hr, 6 hr, 24 hr, 48 hr, and 72 hr.
A2780-CP70 cells were treated with an IC50 dose of cisplatin and an IC50 dose of anti-Gli1 shRNA.

c-jun = c-jun mRNA (semi-quantitative PCR) and protein (Western blot) in A2780-CP70 cells; assay type: cell-based, human
Description: Controls included α-tubulin and histone deacetylase 3. C-jun antibody recognizes non-phosphorylated c-jun protein.
c-jun and c-fos mRNA expression was examined in A2780-CP70 cells transfected with anti-GLI1 shRNA construct at 6 hr, 24 hr, 48 hr, and 72 hr post-transfection using semi-quantative PCR analysis (FIG. 41).
A2780-CP70 cells were transfected with an IC50 dose of anti-Gli1 shRNA (treated) construct or vector (control). Total intracellular c-jun mRNA and c-jun protein was measured at 6 hr, 24 hr, 48 hr, and 72 hr.
C-jun mRNA and protein levels were further examined in cisplatin-resistant A2780-CP70 cells treated with an IC50 dose of anti-Gli1 shRNA. FIG. 78 depicts mRNA levels (panel A) and protein levels (panel B) in cells at 6, 24, 48, and 72 hours post-treatment.

c-fos = c-fos mRNA (semi-quantitative PCR) and protein in A2780-CP70 cells; assay type: cell-based, human

Row | Compound | osteoclast activity (area resorbed) (RAW264.7 cells) | osteoblast differentiation (ALP activity) (MC3T3-E1 cells) | numbers of mineralized nodules (MC3T3-E1 cells; 14 days) | expression of OPN, MMP9 and CTSK by the osteoclasts [1] | c-jun phosphorylation at Ser63 [2] | c-jun phosphorylation at Thr91/93 [2] | c-jun mRNA increase (c-jun; 70 μM cyclopamine, 6 hr vs 0 hr) | c-jun mRNA increase (peak) (c-jun; 70 μM cyclopamine, 24 hr vs 0 hr) | time of peak c-jun level (c-jun; A2780-CP70, IC50 dose of agent) | c-fos mRNA peak level (c-fos; 70 μM cyclopamine, vs 0 hr) | c-fos protein level (c-fos; A2780-CP70, cyclopamine-treated)
1 | SHH: recombinant Sonic hedgehog ligand (R & D Systems) | notably enhances (p<0.001) osteoclast activity | stimulated differentiation | significant increase (p<0.05) | – | – | – | – | – | – | – | –
2 | CC1=C2C[C@H]3[C@@H](CC=C4C[C@@H](O)CC[C@@]43C)[C@@H]2CC[C@]12O[C@@H]1C[C@H](C)CN[C@H]1[C@H]2C [cyclopamine] | – | – | – | significantly reduces the expression of OPN, MMP9 and CTSK | no phosphorylation occurred at Ser63; also recorded: no substantial expression was detected; also recorded: not observed | peak levels at 6 hr | 3 fold | 13 fold | about 48 hours | 27 fold | increased substantially at 6 hr
